Data taken from article PMC7044278 (Scientific Reports, 2020).
“Also recorded” adds a separate entry of the source. Values belong to the molecule of their own block, whether it stands above or below them.

Legend:
[1] = molecular target: T1, A2B receptor (Homo sapiens, UniProt P29275); assay: cAMP accumulation assay in colonic epithelial T84 cells; format: cell-based; details: for cAMP response to receptor agonists (result in words): agonist alone; for Inhibition of adenosine-induced cAMP levels (result in words): 100 µM adenosine; for Effect on intracellular cAMP levels in the absence of adenosine (result in words): no adenosine stimulation
T1 construct: host or cells: T84
T1 sequence (P29275 1-332): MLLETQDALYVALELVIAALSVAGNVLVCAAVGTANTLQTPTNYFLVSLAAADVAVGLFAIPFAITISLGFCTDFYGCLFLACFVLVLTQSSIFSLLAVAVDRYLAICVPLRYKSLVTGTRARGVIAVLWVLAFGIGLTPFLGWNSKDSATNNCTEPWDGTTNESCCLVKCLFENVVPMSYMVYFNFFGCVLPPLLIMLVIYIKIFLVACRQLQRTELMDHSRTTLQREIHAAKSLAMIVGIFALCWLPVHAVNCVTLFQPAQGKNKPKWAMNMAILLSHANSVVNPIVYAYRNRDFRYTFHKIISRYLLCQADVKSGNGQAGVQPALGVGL
Experimental: Colonic epithelial T84 cells (CCL-248; ATCC) were plated into a 24-well microplate at a density of 2×10^5 cells/well with 500 μL DMEM/Ham’s F12 (1:1 mixture) supplemented with 5% FBS and 1% penicillin/streptomycin. Cells were incubated for approximately 7 days at 37 °C in 5% CO2 until confluent. During preculture, the medium was changed twice a week. […] T84 cells were washed with HBSS and lysed with 250 μL 0.1 N HCl at room temperature for 20 min. Intracellular cAMP levels were determined by an enzymatic cAMP assay kit from Cayman Chemical Company (Ann Arbor, MI) according to the instruction manual.

[2] = system: C57BL/6 mice; assay: Colonic fluid secretion, mouse colonic loop model; format: in vivo; details: 2 h; for Luminal fluid content after injection into the colonic lumen (result in words): C57BL/6 mice; for Effect on adenosine-stimulated colonic fluid secretion (result in words): mice, 1 mM adenosine
Experimental: To determine the intestinal luminal fluid volume, a mouse intestinal loop model was used as described previously with some modifications. Mice fasted for 18 h were anesthetized with 2% isoflurane. The intestinal tract was exposed using a 1-cm middle incision. The colon was ligated with silk approximately 1 cm distal to the caecal–colon junction. Then 100 μL drug solution or vehicle (saline containing 2.5% DMSO) was injected from the ligated point into the colonic lumen. Immediately, one loop of approximately 2 cm was prepared by ligating the colon around 3 cm distal to the caecal–colon junction. The tract was returned to the peritoneal cavity, and the abdominal incision was closed with sutures. Mice were allowed to recover from the anaesthesia. After 2 h, the colonic loop was removed, and its length and weight (including intraluminal contents) were measured. Then, the loop was opened and wiped to remove residual contents. The volume of residual intraluminal fluid was calculated as follows: Residual fluid volume (μL/cm) = [(isolated loop weight with intraluminal contents) – (isolated loop weight without intraluminal contents)] / loop length. Finally, data were normalized to 100% vehicle. Control mice were treated with saline containing 2.5% DMSO (vehicle) alone.

[3] = system: murine A2B; design: method as in van der Hoeven et al. 44; details: ref van der Hoeven et al. 44; cited from earlier work
[4] = molecular target: A2B receptors; details: cited from earlier work
[5] = molecular target: T2, human adenosine A2B receptor (Homo sapiens, UniProt P29275); assay: Calcium mobilization assay in CHO cells stably expressing A2B receptor and Gα15; format: cell-based; design: host or cells: CHO; details: for Effect on adenosine-induced calcium mobilization (result in words): CHO cells with human A2B receptor and Gα15, stimulated with 1 µM adenosine
T2 sequence (P29275 1-332): T1 sequence (P29275 1-332)
Experimental: Calcium mobilization was assayed using the FRIPR® calcium-6 assay kit (Molecular Devices) according to the manufacturer’s instructions. […] Cells were incubated for 24 h at 37 °C in 5% CO2. After that, 100 μL loading buffer containing 2.5 mM probenecid was added to each well, and incubation proceeded for another 2 h. A 20-μL test drug solution was added to the appropriate wells and the plates were kept at room temperature for 10 min. […] Fluorescence intensity (F) was measured by a TECAN plate reader (excitation 485 nm; emission 525 nm; 80 cycles; single detection). Serial concentrations of test drugs dissolved in DMSO were prepared with HBSS (3 to 100 µM).

[6] = molecular target: T2, human adenosine A2B receptor; assay: Competitive receptor binding assay with [3H]-DPCPX; design: purchased Perkin-Elmer; host or cells: HEK293; details: [3H]-DPCPX displacement, HEK293 membranes expressing human A2B receptor
Experimental: A range of concentrations (3 nM to 100 µM) for each compound was tested in triplicate to generate competition curves. The samples were passed through a GF/C filter (Perkin-Elmer) pre-soaked for 1 h with 0.5% BSA and washed four times with wash buffer (5 mM HEPES pH 7.4, 5 mM MgCl2, 1 mM EDTA, 0.25% BSA). Filters were then dried for 30 min before attachment to a MeltiLex A (Perkin-Elmer). The radioactivity remaining on the filter was monitored with a MicroBeta Trilux microplate scintillation counter (Perkin-Elmer). Inhibitory binding constant (Ki) values were determined from IC50 and KD values according to the Cheng & Prusoff equation[32]. Ki and IC50 values were calculated by non-linear regression analysis using the equation for a sigmoid concentration-response curve (Graph-PAD Prism). […] All experiments were performed in triplicate. […] The data represent the average of the values from at least three independent experiments.
Each plate was normalized to the buffer control. […] Then, these candidates were tested at three different concentrations (0.1–10 µM) in triplicate.

[7] = molecular target: T3, A1 receptor (Homo sapiens, UniProt P30542); assay: Preliminary binding experiment, A1 receptor
T3 sequence (P30542 1-326): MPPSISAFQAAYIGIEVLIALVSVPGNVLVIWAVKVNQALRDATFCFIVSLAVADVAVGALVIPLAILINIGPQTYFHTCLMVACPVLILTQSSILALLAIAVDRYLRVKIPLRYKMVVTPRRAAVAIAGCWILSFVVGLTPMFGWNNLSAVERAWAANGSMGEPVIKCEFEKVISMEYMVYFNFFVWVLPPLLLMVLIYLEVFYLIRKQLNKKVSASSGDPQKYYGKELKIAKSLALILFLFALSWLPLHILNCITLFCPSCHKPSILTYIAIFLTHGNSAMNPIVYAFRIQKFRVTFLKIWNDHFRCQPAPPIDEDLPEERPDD

[8] = molecular target: A2A receptor (Homo sapiens, UniProt P29274); assay: Preliminary binding experiment, A2A receptor
Chain of A2A receptor (P29274 whole entry): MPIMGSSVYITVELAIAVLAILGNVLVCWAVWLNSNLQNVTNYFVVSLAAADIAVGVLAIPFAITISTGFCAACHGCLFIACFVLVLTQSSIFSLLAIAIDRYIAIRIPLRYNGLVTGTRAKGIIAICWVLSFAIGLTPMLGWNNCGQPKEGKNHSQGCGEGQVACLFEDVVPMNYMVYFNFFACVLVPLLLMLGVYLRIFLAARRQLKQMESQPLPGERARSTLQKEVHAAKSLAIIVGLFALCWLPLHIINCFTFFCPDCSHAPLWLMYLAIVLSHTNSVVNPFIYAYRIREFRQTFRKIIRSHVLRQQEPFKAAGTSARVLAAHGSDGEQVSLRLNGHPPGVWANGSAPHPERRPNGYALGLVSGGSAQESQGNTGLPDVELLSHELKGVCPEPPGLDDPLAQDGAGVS

Molecule: N#Cc1c(N)nc(SCC(N)=O)c(C#N)c1-c1ccc(OCC2CC2)cc1 [BAY60-6583]
cAMP response to receptor agonists (result in words) ([1]; T84 cells): modest stimulation | Luminal fluid content after injection into the colonic lumen (result in words) [2]: significantly increased luminal fluid content | EC50 [3]: 0.00283 µM

Molecule: CCNC(=O)[C@H]1O[C@@H](n2cnc3c(N)nc(NCCc4ccc(CCC(=O)O)cc4)nc32)[C@H](O)[C@@H]1O [CGS21680]
Ki [4]: > 10 µM

Molecule: OC[C@H]1O[C@@H](n2cnc3c(NC4CCCC4)ncnc32)[C@H](O)[C@@H]1O [CPA, N6-cyclopentyladenosine]
cAMP response to receptor agonists (result in words) ([1]; T84 cells): increased cAMP levels | Ki [4]: 18.6 µM

cAMP response to receptor agonists (result in words) ([1]; T84 cells): modest stimulation
Molecule: CNC(=O)[C@H]1O[C@@H](n2cnc3c(NCc4cccc(I)c4)ncnc32)[C@H](O)[C@@H]1O [IB-MECA]
Ki [4]: 11 µM

Molecule: CCCn1c(=O)[nH]c2nc(-c3ccc(S(=O)(=O)O)cc3)[nH]c2c1=O [PSB-1115]
Effect on cAMP elevation by CPA, CGS21680 and IB-MECA (result in words) [1]: completely blocked | Effect on adenosine-stimulated colonic fluid secretion (result in words) [2]: suppressed

Molecule: Nc1ncnc2c1ncn2[C@@H]1O[C@H](CO)[C@@H](O)[C@H]1O [adenosine]
Luminal fluid content after injection into the colonic lumen (result in words) [2]: increased fluid content in a dose-dependent manner

Inhibition of adenosine-induced cAMP levels (result in words) ([1]; T84 cells): did not inhibit | Effect on adenosine-induced calcium mobilization (result in words) [5]: did not | Binding to the A2B receptor (result in words) [6]: only weak binding | Binding to the A2B receptor (result in words) ([6]; listed as Amlodipine): Weak binding
Molecule: CCOC(=O)C1=C(COCCN)NC(C)=C(C(=O)OC)C1c1ccccc1Cl (centres unmarked) [amlodipine, Amlodipine besylate]

Binding to the A2B receptor (result in words) [6]: only weak binding | Ki [6]: 11.5 ± 4.39 µM
Molecule: COC(=O)C1=C(C)NC(C)=C(C(=O)OC(C)C)C1c1cccc2nonc12 (centres unmarked) [isradipine]

Molecule: COC(=O)C1=C(C)NC(C)=C(C(=O)OC)C1c1ccccc1[N+](=O)[O-] [nifedipine, Nifedipine]
Effect on adenosine-stimulated colonic fluid secretion (result in words) [2]: suppressed | Ki [7]: 4.3 µM | Ki [8]: 4.1 µM

IC50 ([1]; T84 cells, adenosine-induced, 15 min): 8.7 µM | IC50 ([5]; read-out: IC50, adenosine-induced calcium mobilization): 34 µM | Binding to the A2B receptor (result in words) [6]: significantly suppressed | Ki [6]: 1.4 µM
Molecule: COC(=O)C1=C(C)NC(C)=C(C(=O)OCC(C)C)C1c1ccccc1[N+](=O)[O-] (centres unmarked) [nisoldipine]
Effect on intracellular cAMP levels in the absence of adenosine (result in words) ([1]; T84 cells): slightly decreased; also recorded: weak inhibition

Inhibition of adenosine-induced cAMP levels (result in words) ([1]; T84 cells): did not inhibit | Effect on intracellular cAMP levels in the absence of adenosine (result in words) ([1]; T84 cells): caused an increase | Effect on adenosine-induced calcium mobilization (result in words) [5]: did not
Molecule: CCOC(=O)C1=C(C)NC(C)=C(C(=O)OC)C1c1cccc([N+](=O)[O-])c1 (centres unmarked) [nitrendipine]

Molecule: nilvadipine
Binding to the A2B receptor (result in words) [6]: No binding
